In patent publication US20070111328A1, “Scintillation proximity assay for the identification of P-glycoprotein modulators” (priority 2005, published 2007):

Legend:
P-glycoprotein (P-gp) [1] = target: T1, P-glycoprotein (P-gp) (Homo sapiens, UniProt P08183); assay: Scintillation proximity assay (SPA): competition with [3H]vinblastine binding to P-gp in KB-V1 cell membranes; settings: mean of triplicates; for effect of test compound on P-gp specific binding signal: test compound 10 μM final concentration, FIG. 8
T1 sequence (P08183 whole entry): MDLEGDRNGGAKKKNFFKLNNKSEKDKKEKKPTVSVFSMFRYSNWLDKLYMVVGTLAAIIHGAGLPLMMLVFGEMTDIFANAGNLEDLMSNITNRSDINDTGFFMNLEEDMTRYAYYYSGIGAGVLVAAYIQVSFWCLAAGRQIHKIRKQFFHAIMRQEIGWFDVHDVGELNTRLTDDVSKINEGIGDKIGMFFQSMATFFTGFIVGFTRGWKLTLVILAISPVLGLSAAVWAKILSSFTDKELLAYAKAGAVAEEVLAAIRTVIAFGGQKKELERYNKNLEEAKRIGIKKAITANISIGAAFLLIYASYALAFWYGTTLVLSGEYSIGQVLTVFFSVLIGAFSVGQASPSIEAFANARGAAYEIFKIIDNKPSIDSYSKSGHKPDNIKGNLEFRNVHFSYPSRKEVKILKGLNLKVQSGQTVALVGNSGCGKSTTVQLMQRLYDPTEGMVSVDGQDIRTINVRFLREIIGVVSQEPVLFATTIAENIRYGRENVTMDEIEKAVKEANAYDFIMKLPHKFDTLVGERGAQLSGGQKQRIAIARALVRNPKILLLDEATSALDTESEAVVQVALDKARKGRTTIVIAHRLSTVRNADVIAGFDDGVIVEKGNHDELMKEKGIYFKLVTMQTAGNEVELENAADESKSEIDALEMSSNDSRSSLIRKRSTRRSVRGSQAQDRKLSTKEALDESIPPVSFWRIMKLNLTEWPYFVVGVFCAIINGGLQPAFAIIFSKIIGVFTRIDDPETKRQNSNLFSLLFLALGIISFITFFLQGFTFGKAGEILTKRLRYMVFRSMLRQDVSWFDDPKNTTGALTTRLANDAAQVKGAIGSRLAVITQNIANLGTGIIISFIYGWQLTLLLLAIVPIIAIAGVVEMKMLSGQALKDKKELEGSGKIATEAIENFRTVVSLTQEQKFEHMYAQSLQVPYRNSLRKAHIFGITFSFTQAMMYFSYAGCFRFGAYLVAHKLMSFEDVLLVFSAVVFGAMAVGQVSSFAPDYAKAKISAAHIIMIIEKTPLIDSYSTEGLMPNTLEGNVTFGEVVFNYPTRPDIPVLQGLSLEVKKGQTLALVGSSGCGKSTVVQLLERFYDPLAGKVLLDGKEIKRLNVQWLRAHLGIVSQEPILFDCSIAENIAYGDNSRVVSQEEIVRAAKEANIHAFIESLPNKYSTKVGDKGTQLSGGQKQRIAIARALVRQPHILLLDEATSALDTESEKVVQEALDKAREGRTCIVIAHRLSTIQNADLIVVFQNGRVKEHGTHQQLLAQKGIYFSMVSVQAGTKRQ
Description: The samples were incubated for an additional 3 to 24-hours.
The methods described herein are based on the scintillation proximity assay (SPA) technique and its use to detect signal changes in the presence of a test compound. […] The signal should be reduced when the test compound is a P-gp substrate and/or inhibitor because of competition on the binding site or inhibition of the binding.

P-glycoprotein (P-gp) [2] = target: T1, P-glycoprotein (P-gp); assay: SPA saturation binding of [3H]-vinblastine to P-gp (KB-V1 cell membranes); set-up: endogenous in cells; host or cells: KB-V1 cells (multidrug-resistant subclone of KB-3-1, HeLa-derived); sucrose-gradient purified plasma membranes; settings: [3H]-vinblastine 5 to 55 nM, specific binding fitted with Prism; read-out: KD (binding dissociation constant)
Description: The specific signal values versus the amount of radioligand was fitted to the equation using the Prism software (GraphPad Software Inc, San Diego, Calif.) as the following: [formula] where Bmax is the maximal binding, [L] is a ligand concentration, and KD is the binding dissociation constant. The fitting gave the KD value of 4 nM, which is in agreement with literature data.

Row | Molecule | effect of test compound on P-gp specific binding signal (P-glycoprotein (P-gp) [1]) | other results
1 | Cn1c(=O)c2c(ncn2C)n(C)c1=O [caffeine] | no impact on the P-gp signal | –
2 | Ivermectin | – | IC50 (P-glycoprotein (P-gp) [1]; read-out: IC50 values determined by SPA, inhibition of [3H]vinblastine binding to P-gp, KB-V1 membranes, WGA-Ysi beads, PRISM fit): 362 nM
3 | CN(Cc1cnc2nc(N)nc(N)c2n1)c1ccc(C(=O)N[C@@H](CCC(=O)O)C(=O)O)cc1 [methotrexate] | did not appear to interfere with the P-gp signal | –
4 | COc1cccc2c1C(=O)c1c(O)c3c(c(O)c1C2=O)C[C@@](O)(C(=O)CO)C[C@@H]3O[C@H]1C[C@H](N)[C@H](O)[C@H](C)O1 [doxorubicin] | did not appear to interfere with the P-gp signal | –
5 | CC[C@]1(O)C[C@@H]2CN(CCc3c([nH]c4ccccc34)[C@@](C(=O)OC)(c3cc4c(cc3OC)N(C)[C@H]3[C@@](O)(C(=O)OC)[C@H](OC(C)=O)[C@]5(CC)C=CCN6CC[C@]43[C@@H]65)C2)C1 [[^3H]-vinblastine] | – | Kd (P-glycoprotein (P-gp) [2]): 4 nM
